Test results published in US20240148821A1, “PHARMACEUTICAL USE OF CYCLIC PEPTIDE COMPOUND” (CHUGAI SEIYAKU KABUSHIKI KAISHA, priority 2021, published 2024).
Numbered stars: 1 amine (or outer) side, 2 acyl side, 3 side chain; on linkers, the order of the positions; unused ones are H or OH. Bridge positions count the residues as written; N and C are the ends. Square brackets hold non-standard residues; d marks the D form. Peptide text beside a SMILES is read from it. * marks the point of attachment. hPhe(3,5-F2-4-CF3) = N[C@@H](CCc1cc(F)c(C(F)(F)F)c(F)c1)C(=O)O; hPhe(3-Cl-4-CF3) = N[C@@H](CCc1ccc(C(F)(F)F)c(Cl)c1)C(=O)O; hPhe(3-F,4-CF3) = N[C@@H](CCc1ccc(C(F)(F)F)c(F)c1)C(=O)O; NEtPhe(4-CF3) = CCN[C@@H](Cc1ccc(C(F)(F)F)cc1)C(=O)O; NMePhe(4-CF3) = CN[C@@H](Cc1ccc(C(F)(F)F)cc1)C(=O)O; NMePhe(4-Cl) = CN[C@@H](Cc1ccc(Cl)cc1)C(=O)O; NMePhe(4-Me) = CN[C@@H](Cc1ccc(C)cc1)C(=O)O; hPhe(4-Cl) = N[C@@H](CCc1ccc(Cl)cc1)C(=O)O; NMedβ3hAla = C[C@H](CC(=O)[*:2])N(C)[*:1]; NMeGly(cPent) = CN[C@H](C(=O)O)C1CCCC1; NMe3Pal = CN[C@@H](Cc1cccnc1)C(=O)O; NMeGly(cBu) = CN[C@H](C(=O)O)C1CCC1; NMeCha = CN[C@@H](CC1CCCCC1)C(=O)O; Hyp = O=C(O)[C@@H]1C[C@@H](O)CN1; NEtLeu = CCN[C@@H](CC(C)C)C(=O)O; NMeAhp(2) = CCCCC[C@H](NC)C(=O)O; NMeChg = CN[C@H](C(=O)O)C1CCCCC1; NMeI = CC[C@H](C)[C@H](NC)C(=O)O; N(CH2CH2)2CF2 = FC1(F)CCN(*)CC1; NMeE = CN[C@@H](CCC(=O)O)C(=O)O; NMeD = CN[C@@H](CC(=O)O)C(=O)O; NMeL = CN[C@@H](CC(C)C)C(=O)O; NEtAla = CCN[C@@H](C)C(=O)O; NMeV = CN[C@H](C(=O)O)C(C)C; d(β3hA) = C[C@@H](N)CC(=O)O; Azetidin(1-yl) = C1CN(*)C1; Morpholide = C1CN(*)CCO1; NMeA = CN[C@@H](C)C(=O)O; NMeAib = CNC(C)(C)C(=O)O; Piperidide = C1CCN(*)CC1; dNMeA = CN[C@H](C)C(=O)O; Ac5c = NC1(C(=O)O)CCCC1; Aze = O=C(O)[C@@H]1CCN1; Bn = c1ccc(C*)cc1; Sar = CNCC(=O)O

How the values were obtained:
[1] = system: Human pancreatic cancer cell line AsPC-1 (G12D mutation Kras); assay: AsPC-1 cell growth inhibition (AsPC-1 CGI); assay type: cell-based; settings: read-out: AsPC-1 cell growth inhibition, 50% growth inhibitory concentration (IC50 value); 96 hours, CellTiter-Glo, values classified in ranges
[2] = molecular target: protein-protein interaction between Kras and SOS1 (biotin-tagged human Kras loaded with GDP, His-tagged human SOS1) (Homo sapiens (Human), UniProt P01116, G12D); assay: Protein-protein interaction inhibition between Kras and SOS1 (KrasG12D-SOS PPI) using AlphaScreen; assay type: biochemical; settings: AlphaScreen; biotin-tagged human Kras loaded with GDP, His-tagged human SOS1; read-out: KRAS G12D-SOS PPI IC50;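 note: kras produced in E. coli, Ni-coupled donor beads and streptavidin acceptor beads, excitation 680 nm with emission detected at 520–620 nm via singlet oxygen transfer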

Compound	IC50 [1] [nM]	IC50 [2] [nM]
CCO[C@@H]1C[C@H]2C(=O)NC3(CCCC3)C(=O)N(C)[C@@H](C3CCCCC3)C(=O)N(C)[C@H](C(=O)N3CCOCC3)CC(=O)N(C)[C@@H](CC(C)C)C(=O)N[C@@H]([C@@H](C)CC)C(=O)N(C)CC(=O)N(C)CC(=O)N(C)[C@@H](CC3CCCCC3)C(=O)N(C)CC(=O)N[C@@H](CCc3cc(F)c(C(F)(F)F)c(F)c3)C(=O)N2C1 [Compound 1290] ([NMeL]I[Sar][Sar][NMeCha][Sar][hPhe(3,5-F2-4-CF3)][Hyp](Et)[Ac5c][NMeChg][NMeD]-Morpholide; lactam N-11)	≤ 20	0.63
CC(C)C[C@@H]1NC(=O)C(C)(C)N(C)C(=O)[C@H](CC(C)C)NC(=O)[C@H](CCc2ccc(C(F)(F)F)c(F)c2)NC(=O)CN(C)C(=O)[C@H](Cc2ccc(Cl)cc2)N(C)C(=O)CN(C)C(=O)CN(C)C(=O)[C@H](C(C)C)NC(=O)[C@H](CC(C)C)N(C)C(=O)C[C@@H](C)N(C)C1=O [Compound 956] (cyclo(L[NMeAib]L[NMedβ3hAla][NMeL]V[Sar][Sar][NMePhe(4-Cl)][Sar][hPhe(3-F,4-CF3)]))	> 500	80
CC[C@H](C)[C@@H]1NC(=O)[C@H](CC(C)C)N(C)C(=O)C[C@@H](C(=O)N2CCOCC2)N(C)C(=O)[C@H](C2CCCC2)N(C)C(=O)C2(CCCC2)NC(=O)[C@@H]2CCCN2C(=O)[C@H](CCc2ccc(C(F)(F)F)c(F)c2)NC(=O)CN(C)C(=O)[C@H](CC2CCCCC2)N(C)C(=O)[C@@H]2CCN2C(=O)[C@H](C)N(C)C1=O [Compound 390] ([NMeL]I[NMeA][Aze][NMeCha][Sar][hPhe(3-F,4-CF3)]P[Ac5c][NMeGly(cPent)][NMeD]-Morpholide; lactam N-11)	≤ 20	0.77
CC[C@H](C)[C@@H]1NC(=O)[C@H](CC(C)C)N(C)C(=O)C[C@@H](C(=O)N2CCOCC2)N(C)C(=O)[C@H](C2CCCCC2)N(C)C(=O)C2(CCCC2)NC(=O)[C@H](Cc2cccnc2)N(C)C(=O)[C@H](CCc2ccc(C(F)(F)F)c(Cl)c2)NC(=O)CN(C)C(=O)[C@H](CC2CCCCC2)N(C)C(=O)CN(C)C(=O)CN(C)C1=O [Compound 1745] ([NMeL]I[Sar][Sar][NMeCha][Sar][hPhe(3-Cl-4-CF3)][NMe3Pal][Ac5c][NMeChg][NMeD]-Morpholide; lactam N-11)	> 500	1.3
CC[C@H](C)[C@@H]1NC(=O)[C@H](CC(C)C)N(C)C(=O)C[C@@H](C(=O)N2CCCCC2)N(C)C(=O)[C@H](C(C)C)N(C)C(=O)C2(CCCC2)NC(=O)[C@H](CC(=O)N2CCC(F)(F)CC2)N(C)C(=O)[C@H](CCc2ccc(Cl)cc2)NC(=O)CN(C)C(=O)[C@H](CC2CCCCC2)N(C)C(=O)CN(C)C(=O)CN(C)C1=O [Compound 177] ([NMeL]I[Sar][Sar][NMeCha][Sar][hPhe(4-Cl)][NMeD](N(CH2CH2)2CF2)[Ac5c][NMeV][NMeD]-Piperidide; lactam N-11)	> 500	45
CC[C@H](C)[C@@H]1NC(=O)[C@H](CC(C)C)N(C)C(=O)C[C@@H](C)NC(=O)[C@H](CC(C)C)N(C)C(=O)C2(CCCC2)NC(=O)[C@@H]2C[C@@H](OCc3ccccc3)CN2C(=O)[C@H](CCc2ccc(C(F)(F)F)c(F)c2)NC(=O)CN(C)C(=O)[C@H](CC2CCCCC2)N(C)C(=O)CN(C)C(=O)CN(C)C1=O [Compound 2116, (3S,9S,18S,21S,25R,28S,34S,36R)-36-benzyloxy-9-(cylohexylmethyl)-3-[2-[3-fluoro-4-(trifluoromethyl)phenyl]ethyl]-21,28-diisobutyl-7,10,13,16,22,25,29-heptamethyl-18-[(1S)-1-methylpropyl]spiro[1,4,7,10,13,16,19,22,26,29,32-undecazabicyclo[32.3.0]heptatriacontane-31,1′-cyclopentane]-2,5,8,11,14,17,20,23,27,30,33-undecone] (cyclo([Ac5c][NMeL][d(β3hA)][NMeL]I[Sar][Sar][NMeCha][Sar][hPhe(3-F,4-CF3)][Hyp](Bn)))	> 500	110
CC[C@H](C)[C@@H]1NC(=O)[C@H](CC(C)C)N(C)C(=O)C[C@@H](C(=O)N2CCCCC2)N(C)C(=O)[C@H](C2CCCCC2)N(C)C(=O)C2(CCCC2)NC(=O)[C@H](CCC(=O)NC)N(C)C(=O)[C@H](CCc2ccc(C(F)(F)F)c(Cl)c2)NC(=O)CN(C)C(=O)[C@H](CC2CCCCC2)N(C)C(=O)CN(C)C(=O)CN(C)C1=O [Compound 590] ([NMeL]I[Sar][Sar][NMeCha][Sar][hPhe(3-Cl-4-CF3)][NMeE](NHMe)[Ac5c][NMeChg][NMeD]-Piperidide; lactam N-11)	> 500	1.4
CC[C@H](C)[C@@H]1NC(=O)[C@H](CC(C)C)N(C)C(=O)C[C@@H](C(=O)N2CCCCC2)N(C)C(=O)[C@H](C(C)C)N(C)C(=O)C2(CCCC2)NC(=O)[C@@H]2CCCN2C(=O)[C@H](CCc2ccc(C(F)(F)F)c(Cl)c2)NC(=O)CN(C)C(=O)[C@H](CC2CCCCC2)N(C)C(=O)[C@@H]2CCN2C(=O)[C@H](CC2CCCCC2)N(C)C1=O [Compound 1574] ([NMeL]I[NMeCha][Aze][NMeCha][Sar][hPhe(3-Cl-4-CF3)]P[Ac5c][NMeV][NMeD]-Piperidide; lactam N-11)	> 500	35
CC[C@H](C)[C@@H]1NC(=O)[C@H](C2CCC2)N(C)C(=O)C[C@@H](C(=O)N2CCCCC2)N(C)C(=O)[C@H](C2CCCC2)N(C)C(=O)C2(CCCC2)NC(=O)[C@@H]2CCCN2C(=O)[C@H](CCc2ccc(C(F)(F)F)c(Cl)c2)NC(=O)CN(C)C(=O)[C@H](CC2CCCCC2)N(C)C(=O)[C@@H]2CCN2C(=O)[C@H](C)N(C)C1=O [Compound 270] ([NMeGly(cBu)]I[NMeA][Aze][NMeCha][Sar][hPhe(3-Cl-4-CF3)]P[Ac5c][NMeGly(cPent)][NMeD]-Piperidide; lactam N-11)	≤ 20	0.67
CC[C@H](C)[C@@H]1NC(=O)[C@H](CC(C)C)N(C)C(=O)C[C@@H](C(=O)N2CCCCC2)N(C)C(=O)[C@H](C2CCCCC2)N(C)C(=O)C2(CCCC2)NC(=O)[C@H](C)N(CC)C(=O)[C@H](CCc2ccc(C(F)(F)F)c(Cl)c2)NC(=O)CN(C)C(=O)[C@H](CC2CCCCC2)N(C)C(=O)CN(C)C(=O)CN(C)C1=O [Compound 1045] ([NMeL]I[Sar][Sar][NMeCha][Sar][hPhe(3-Cl-4-CF3)][NEtAla][Ac5c][NMeChg][NMeD]-Piperidide; lactam N-11)	> 500	6.7
CC[C@H](C)[C@@H]1NC(=O)[C@H](C)N(C)C(=O)C[C@@H](C(=O)N2CCCCC2)N(C)C(=O)[C@H](C(C)C)N(C)C(=O)C2(CCCC2)NC(=O)[C@@H]2CCCN2C(=O)[C@H](CCc2ccc(C(F)(F)F)c(Cl)c2)NC(=O)[C@@H](C)N(C)C(=O)[C@H](CC2CCCCC2)N(C)C(=O)[C@@H]2CCN2C(=O)CN(C)C1=O [Compound 115] ([NMeA]I[Sar][Aze][NMeCha][dNMeA][hPhe(3-Cl-4-CF3)]P[Ac5c][NMeV][NMeD]-Piperidide; lactam N-11)	> 500	6
CCCCC[C@H]1C(=O)N[C@@H]([C@@H](C)CC)C(=O)N[C@@H](C)C(=O)N2CC[C@H]2C(=O)N(C)[C@@H](Cc2ccc(C)cc2)C(=O)N(C)CC(=O)N[C@@H](CCc2ccc(C(F)(F)F)c(Cl)c2)C(=O)N2CCC[C@H]2C(=O)NC2(CCCC2)C(=O)N(C)[C@@H]([C@@H](C)CC)C(=O)N(C)[C@H](C(=O)N(C)C)CC(=O)N1C [Compound 342] ([NMeAhp(2)]IA[Aze][NMePhe(4-Me)][Sar][hPhe(3-Cl-4-CF3)]P[Ac5c][NMeI][NMeD]-NMe2; lactam N-11)	≤ 20	0.95
CC[C@H](C)[C@@H]1NC(=O)[C@H](CC(C)C)N(CC)C(=O)C[C@@H](C(=O)N2CCOCC2)N(C)C(=O)[C@H]([C@@H](C)CC)N(C)C(=O)C2(CCCC2)NC(=O)[C@@H]2CCCN2C(=O)[C@H](CCc2ccc(C(F)(F)F)c(Cl)c2)NC(=O)CN(C)C(=O)[C@H](Cc2ccc(C(F)(F)F)cc2)N(C)C(=O)[C@@H]2CCN2C(=O)[C@H](C)N(C)C1=O [Compound 1234] ([NEtLeu]I[NMeA][Aze][NMePhe(4-CF3)][Sar][hPhe(3-Cl-4-CF3)]P[Ac5c][NMeI][NMeD]-Morpholide; lactam N-11)	≤ 20	4.5
CCO[C@@H]1C[C@H]2C(=O)NC3(CCCC3)C(=O)N(C)[C@@H](C3CCCC3)C(=O)N(C)[C@H](C)CC(=O)N(C)[C@@H](CC(C)C)C(=O)N[C@@H]([C@@H](C)CC)C(=O)N(C)[C@@H](C)C(=O)N3CC[C@H]3C(=O)N(CC)[C@@H](Cc3ccc(C(F)(F)F)cc3)C(=O)N(C)CC(=O)N[C@@H](CCc3ccc(C(F)(F)F)c(Cl)c3)C(=O)N2C1 [Compound 816] (cyclo([Ac5c][NMeGly(cPent)][NMedβ3hAla][NMeL]I[NMeA][Aze][NEtPhe(4-CF3)][Sar][hPhe(3-Cl-4-CF3)][Hyp](Et)))	≤ 20	3.9
CCO[C@@H]1C[C@H]2C(=O)NC3(CCCC3)C(=O)N(C)[C@@H](C3CCCC3)C(=O)N(C)[C@H](C(=O)N3CCC3)CC(=O)N(C)[C@@H](CC(C)C)C(=O)N[C@@H]([C@@H](C)CC)C(=O)N(C)[C@@H](C)C(=O)N3CC[C@H]3C(=O)N(C)[C@@H](CC3CCCCC3)C(=O)N(C)CC(=O)N[C@@H](CCc3ccc(C(F)(F)F)c(Cl)c3)C(=O)N2C1 [Compound 1158] ([NMeL]I[NMeA][Aze][NMeCha][Sar][hPhe(3-Cl-4-CF3)][Hyp](Et)[Ac5c][NMeGly(cPent)][NMeD]-{Azetidin(1-yl)}; lactam N-11)	≤ 20	0.52
